The text below walks through data of publication PMC7349657, “Efficient Targeted Degradation via Reversible and Irreversible Covalent PROTACs” (Journal of the American Chemical Society, 2020).

In one assay the target is T1, BTK C481S (Homo sapiens, UniProt Q06187, C481S).
T1 construct: Human wild type BTK full length was obtained from the ORFeome; expressed in transfected cells; host or cells: U2OS (ATCC HTB-96), pCDNA3.1, CMV promoter
Nature of the assay: Degradation of overexpressed BTK C481S in transfected U2OS cells. Format: cell-based. As to conditions: overexpressed WT vs C481S BTK, 100 nM, 24 h. As to the method:
Figure 5 Degradation of overexpressed BTK and BTK C481S in U2OS cells. (A) Transfected U2OS cells were treated with 100 nM PROTAC for 24 h, followed by measuring BTK levels via Western blot. (B) Quantification of normalized BTK levels in (A). TEXT PRINTED IN THE PICTURE: (A) IR-1: BTK % control: 43 (Transfection: BTK-WT; PROTAC 24h [0.1 μM]); BTK % control: 67 (Transfection: BTK-C481S; PROTAC 24h [0.1 μM]) | (A) RC-2: BTK % control: 58 (Transfection: BTK-WT; PROTAC 24h [0.1 μM]); BTK % control: 73 (Transfection: BTK-C481S; PROTAC 24h [0.1 μM]) | (A) IR-2: BTK % control: 41 (Transfection: BTK-WT; PROTAC 24h [0.1 μM]); BTK % control: 62 (Transfection: BTK-C481S; PROTAC 24h [0.1 μM]) | (A) NC-1: BTK % control: 27 (Transfection: BTK-WT; PROTAC 24h [0.1 μM]); BTK % control: 49 (Transfection: BTK-C481S; PROTAC 24h [0.1 μM]) | (A) RC-3: BTK % control: 27 (Transfection: BTK-WT; PROTAC 24h [0.1 μM]); BTK % control: 104 (Transfection: BTK-C481S; PROTAC 24h [0.1 μM]) DOUBTS OF THE COPYIST ABOUT THIS PICTURE: The % control numbers are printed under a Western blot. They are given here as printed results for each compound. The vehicle and untransfected lanes (DMSO 100 and 100, Un 1 and 0) were left out as controls. / Panel B prints no numbers for its bars, so nothing was taken from it.
(§1) Ramos (ATCC, CRL-1596), Mino (ATCC, CRL-3000), or K562 (NCI-60) cell lines were counted and diluted to 10^6 cell/mL, using 1 mL per well in a 24-well plate, and U2OS (ATCC HTB-96) cells overexpressing human BTK WT or C481S mutant were grown using 2 mL in a six-well plate (see Supporting Information). Cells were incubated with 1% DMSO or compound in indicated concentrations for 24 h unless indicated differently, or cells were left untreated. Lysates were prepared as previously described,[29] and samples were measured for total protein quantification by bicinchoninic acid (BCA) assay (#23225 ThermoFisher Scientific) supplemented with 4× loading buffer including 20 mM DTT, heated to 70 °C for 10 min, loaded into 4% SDS-PAGE gel, run for 45 min at 140 mV, then transferred into a nitrocellulose membrane (Biorad) using a Trans-Blot Turbo transfer system (Biorad). The membrane was stained with Ponceau (Sigma) to validate transfer for 10 min in gentle agitation then destained for 1 h with MQ water. The membrane was blocked with Licor blocking buffer (LIC927-70001) for 1 h, washed three times for 5 min with TBS-T, incubated with primary antibody BTK (D3H5) rabbit mAb (CST; 8547 S) overnight (16 h) at 4 °C, washed three times for 5 min with TBS-T, and incubated with primary antibody against β-actin (CST; 3700) for 1 h at 25 °C. Membrane was washed three times for 5 min with TBS-T, incubated with fluorescent secondary antibodies anti-mouse IgG Alexa Fluor 647 (CST: 4410S) and anti-rabbit-IgG IRDye 800(LICOR: 926-32211) for 1 h, then washed three times for 5 min with TBS-T, dried, and immediately imaged and analyzed using Licor Odyssey CLx. Prism (GraphPad) software was used to calculate degradation levels. We used second-order polynomial fits to estimate DC50 and Dmax values.
Cloning and Over Expression of BTK
Human wild type BTK full length was obtained from the ORFeome (ref: http://www.orfeomecollaboration.org/), from which the full human BTK gene (clone HsCD00433457) was inserted into the mammalian expression vector pCDNA3.1. In parallel, a mutant BTK C481S was constructed by assemble 2 PCR products harboring the desired mutation and cloned into pCDNA3.1. […]

For another assay, the target named is BTK (Homo sapiens, UniProt Q06187). Nature of the assay: BTK degradation in Mino cells, dose-response Western blot. The format is cell-based. On the set-up: endogenous in cells; host or cells: Mino (ATCC CRL-3000), Ramos (ATCC CRL-1596), K562 (NCI-60). As to conditions: 24 h; for DC50: second-order polynomial fit; for Dmax: MINO, read-out: Dmax (maximal degradation). On the procedure:
We evaluated the ability of the compounds to induce degradation of BTK in human cell lines. We incubated Mino cells with the compounds and followed BTK levels after 24 h by Western blot (Figure 2, Supporting Figure 2). […] The irreversible acrylamides IR-1 and IR-2 and the cyanoacrylamide RC-3 followed closely with DC50’s under 10 nM and Dmax near 90%. […] We conducted metabolomics studies to estimate if cellular penetration and stability may contribute to the relative potencies (Supporting Table 2). NC-1 and RC-3 reached an effective concentration that was ∼2 times higher than IR-2 and ∼10 times higher than RC-2. Therefore, the lower potency of RC-2 can at least in part be explained by lower permeability or stability.
Figure 2 Efficient BTK degradation in cells. (A) Western blot evaluation of BTK levels in Mino cells in response to various concentrations of RC-2, IR-2, NC-1, and RC-3, after 24 h of incubation. (B) Quantification of BTK levels in (A) by normalization to the β-actin house-keeping gene in Mino cells. DC50 and Dmax were calculated by fitting the data to a second-order polynomial using Prism software. (C) Summary of the DC50 and Dmax values for the PROTACs in Mino cells described in (A) and Supporting Figure 2. TEXT PRINTED IN THE PICTURE: (C) NC-1: DC50 (nM): 2.2; Dmax (%): 97 | (C) IR-1: DC50 (nM): 8.6; Dmax (%): 91 | (C) IR-2: DC50 (nM): 1.9; Dmax (%): 88 | (C) RC-1: DC50 (nM): 10; Dmax (%): 68 | (C) RC-2: DC50 (nM): 35; Dmax (%): 66 | (C) RC-3: DC50 (nM): 6; Dmax (%): 85
as §1
Background: In western blotting, separated proteins are transferred to a membrane and probed.

Values joined by “and” are separate entries in the source; they are usually repeats but may differ in a detail not shown here. Identical values can stand only once. Some results are limits rather than exact numbers.

The DC50 is the concentration giving 50% degradation. The low end stands for a more potent degrader, the high end for a less potent degrader. One may read the Dmax as the greatest extent of degradation seen.

T1 sequence (Q06187 whole entry C481S): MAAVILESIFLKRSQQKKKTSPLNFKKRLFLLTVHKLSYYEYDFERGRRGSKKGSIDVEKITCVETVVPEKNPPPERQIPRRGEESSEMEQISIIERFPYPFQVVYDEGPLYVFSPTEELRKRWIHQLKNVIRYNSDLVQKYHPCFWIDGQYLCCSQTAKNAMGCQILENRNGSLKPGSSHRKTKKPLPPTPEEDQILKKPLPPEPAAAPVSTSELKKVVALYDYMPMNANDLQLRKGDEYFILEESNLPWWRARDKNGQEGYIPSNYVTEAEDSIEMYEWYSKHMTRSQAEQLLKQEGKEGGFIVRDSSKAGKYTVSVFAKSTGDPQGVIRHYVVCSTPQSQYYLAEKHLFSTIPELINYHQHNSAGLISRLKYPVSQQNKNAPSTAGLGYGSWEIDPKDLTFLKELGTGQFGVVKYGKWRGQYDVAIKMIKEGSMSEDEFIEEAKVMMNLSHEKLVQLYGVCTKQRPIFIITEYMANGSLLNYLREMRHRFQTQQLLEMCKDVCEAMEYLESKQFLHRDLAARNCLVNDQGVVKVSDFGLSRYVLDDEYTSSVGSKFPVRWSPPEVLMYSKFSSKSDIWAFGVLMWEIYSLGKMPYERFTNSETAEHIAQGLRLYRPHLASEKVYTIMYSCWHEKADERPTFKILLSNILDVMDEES
Chain of BTK (Q06187 whole entry): as the sequence (Q06187 whole entry C481S) above, with S481C counted along it

Turning to `Nc1ncnc2c1c(-c1ccc(Oc3ccccc3)cc1)nn2C1CCCN(C(=O)C=CCOCCOCCOCCOCCOCCOc2cccc3c2C(=O)N(C2CCC(=O)NC2=O)C3=O)C1` (stereo not shown) [IR-1], the “sensitivity of degradation to the C481S mutation” value (from here on “sensitivity of degradation”) on BTK C481S is “low sensitivity to the mutation”. On BTK, the “Dmax (maximal degradation)” value is on record as 91%; the DC50 is < 10 nM and 8.6 nM; the Dmax is approximately 90%.
In the case of `Nc1ncnc2c1c(-c1ccc(Oc3ccccc3)cc1)nn2C1CCCN(C(=O)C=CCCCCOCCOCCOCCOCCOc2cccc3c2C(=O)N(C2CCC(=O)NC2=O)C3=O)C1` (stereo not shown) [IR-2], the “sensitivity of degradation” value at BTK C481S is listed as “low sensitivity to the mutation”. Also, at BTK, the “Dmax (maximal degradation)” value is on record as 88% and the maximal degradation (Dmax) was approximately 90%.
For `Nc1ncnc2c1c(-c1ccc(Oc3ccccc3)cc1)nn2C1CCCN(C(=O)CCCCCCOCCOCCOCCOCCOc2cccc3c2C(=O)N(C2CCC(=O)NC2=O)C3=O)C1` (stereo not shown) [NC-1], the “sensitivity of degradation” value on BTK C481S is given as “only mildly affected by the mutation”. For the same molecule, on BTK, the DC50 amounted to 2.2 nM and the Dmax is 97%.
On to `N#CC(=CCCCCOCCOCCOCCOCCOc1cccc2c1C(=O)N(C1CCC(=O)NC1=O)C2=O)C(=O)N1CCCC(n2nc(-c3ccc(Oc4ccccc4)cc3)c3c(N)ncnc32)C1` (stereo not shown) [RC-2], for which the “sensitivity of degradation” value at BTK C481S was “low sensitivity to the mutation”. The Dmax at BTK is 66%.
Turning to `CC(C)(C=C(C#N)C(=O)N1CCCC(n2nc(-c3ccc(Oc4ccccc4)cc3)c3c(N)ncnc32)C1)CCCOCCOCCOCCOCCOc1cccc2c1C(=O)N(C1CCC(=O)NC1=O)C2=O` (stereo not shown) [RC-3], the “sensitivity of degradation” value on BTK C481S is recorded as “severely impaired by the mutation”. Also, on BTK, the “Dmax (maximal degradation)” value came out at 85%; the DC50 was < 10 nM and 6 nM; the Dmax was approximately 90%.
